From ChEMBL document CHEMBL5614442, “Discovery, synthesis and biological evaluation of novel isoquinoline derivatives as potent indoleamine 2, 3-dioxygenase 1 and tryptophan 2, 3-dioxygenase dual inhibitors” (Eur J Med Chem, 2024)
Activity calls are given as the source filed them. The calls are words filed in the database; no cut-off is given here.

How the values were obtained:
[1] = molecular target: T1, Indoleamine 2,3-dioxygenase 1 (Homo sapiens, UniProt P14902); experiment: Inhibition of N-terminal His-tagged recombinant human IDO1 extracted from Escherichia coli Transetta (DE3) using L-tryptophan as substrate preincubated for 5 mins followed by substrate addition and measured after 1 hrs by absorbance based microplate reader
Target sequence in this assay (P14902 whole entry): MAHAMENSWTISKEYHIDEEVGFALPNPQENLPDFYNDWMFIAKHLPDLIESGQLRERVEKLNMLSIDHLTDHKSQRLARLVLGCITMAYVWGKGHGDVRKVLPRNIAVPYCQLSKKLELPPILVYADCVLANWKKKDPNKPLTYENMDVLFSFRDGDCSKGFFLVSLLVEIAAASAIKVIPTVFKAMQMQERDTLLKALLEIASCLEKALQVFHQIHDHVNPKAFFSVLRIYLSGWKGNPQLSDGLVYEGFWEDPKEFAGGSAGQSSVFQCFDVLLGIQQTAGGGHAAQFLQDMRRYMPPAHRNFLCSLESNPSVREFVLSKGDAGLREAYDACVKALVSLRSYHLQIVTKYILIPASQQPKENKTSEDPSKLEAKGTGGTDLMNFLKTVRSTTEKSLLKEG

[2] = molecular target: T2, Tryptophan 2,3-dioxygenase (Homo sapiens, UniProt P48775)
Target sequence in this assay (P48775 whole entry): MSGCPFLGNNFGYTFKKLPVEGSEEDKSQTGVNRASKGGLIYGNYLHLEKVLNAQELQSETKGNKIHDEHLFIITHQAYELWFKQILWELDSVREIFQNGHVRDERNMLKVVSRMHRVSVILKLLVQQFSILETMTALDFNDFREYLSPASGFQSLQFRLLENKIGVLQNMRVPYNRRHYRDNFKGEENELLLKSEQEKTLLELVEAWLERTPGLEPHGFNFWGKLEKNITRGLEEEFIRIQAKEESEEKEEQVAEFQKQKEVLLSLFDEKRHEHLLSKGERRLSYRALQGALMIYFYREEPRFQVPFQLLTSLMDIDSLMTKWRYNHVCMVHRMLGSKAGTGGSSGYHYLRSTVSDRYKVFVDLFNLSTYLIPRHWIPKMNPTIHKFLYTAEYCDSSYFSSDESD

[3] = molecular target: T1, Indoleamine 2,3-dioxygenase 1; experiment: Inhibition of IDO1 (unknown origin)
[4] = molecular target: T2, Tryptophan 2,3-dioxygenase; experiment: Inhibition of TDO (unknown origin)
[5] = molecular target: T1, Indoleamine 2,3-dioxygenase 1; experiment: Inhibition of IDO1 in IFN-gamma induced human HeLa cells using L-tryptophan as substrate incubated for 24 hrs by absorbance based microplate analysis; format: cell-based
Target sequence in this assay (P14902 whole entry): as the sequence (P14902 whole entry) above

[6] = molecular target: T2, Tryptophan 2,3-dioxygenase; remark: listed apart in the source
Target sequence in this assay (P48775 whole entry): as the sequence (P48775 whole entry) above

Structure (SMILES) | IC50 [1] [µM] | IC50 [2] [µM] | also measured
COc1ccc2cc(-c3cccnc3)ncc2c1OC | > 100 | > 100 | 
COc1ccc2cc(-c3ccc(F)cc3)ncc2c1OC | 42.6 | 9.08 | 
COc1ccc2cc(-c3cccs3)ncc2c1OC | 11.2 | 2.9 | 
COc1ccc2cc(-c3ccc4ncsc4c3)ncc2c1OC | > 100 | > 100 | 
COc1ccc2cc3[n+](cc2c1O)CCc1cc2c(cc1-3)OCO2 |  |  | inhibition [3]: Active; inhibition [4]: Active
COc1ccc(-c2ncc3c(O)c(OC)ccc3n2)cc1 | > 100 | > 100 | 
Oc1ccc2cc(-c3ccc4c(c3)OCO4)ncc2c1 | > 100 | > 100 | 
COc1ccc(-c2cc3ccc(OC)c(OC)c3cn2)cc1 | 11.1 | 2.72 | 
COc1ccc2cc(-c3ccc(NC(=O)c4ccc(F)cc4)cc3)ncc2c1O | > 100 | > 100 | 
COc1ccc2cc(-c3cccs3)ncc2c1O | 21 | 1.02 | 
COc1ccc2cc(-c3ccc(NC(=O)c4ccccc4)cc3)ncc2c1O | 4.45 | 0.19 | IC50 [5]: > 30 µM; IC50 [6]: 14.6 µM
COc1ccc2cc(-c3ccc(NS(=O)(=O)N4CCCCC4)cc3)ncc2c1O | 15.4 | 7.97 | 
COc1ccc2cc(-c3ccc(C)cc3)ncc2c1OC | > 100 | > 100 | 
COc1ccc2cc3[n+](cc2c1OC)CCc1cc2c(cc1-3)OCO2 [BERBERINE] |  |  | IC50 [3]: 0.26 µM; IC50 [4]: 0.03 µM
Oc1cccc2cc(-c3ccccc3)ncc12 | 70.5 | 25 | 
COc1ccc2cc(-c3ccc(NC(=O)Nc4ccccc4)cc3)ncc2c1O | 50.5 | 14.3 | 
COc1ccc2cc(C34C[C@H]5C[C@@H](C3)C[C@@H](C4)C5)ncc2c1OC | 17.8 | 2.64 | 
COc1ccc2cc(-c3ccc(C)cc3)ncc2c1O | > 100 | > 100 | 
COc1ccc2cc(-c3ccccc3)ncc2c1OC | 7.81 | 0.34 | IC50 [5]: > 30 µM; IC50 [6]: > 30 µM
COc1ccc2cc(-c3ccc(Br)cc3)ncc2c1OC | 78.6 | 34.3 | 
